Values after ≈ are worked out from the molar mass of the structure shown.
Legend:
[1] = system: Escherichia coli NIHJ; assay: Minimum inhibitory concentration, Escherichia coli; type: cell-based
[2] = Solubility / hygroscopicity of the Na salt (physicochemical properties); settings: for Solubility in methanol, ethanol, ethyl acetate, butyl acetate and other organic solvents: (n-)butanol (not named for compound C)
[3] = system: Bacillus subtilis ATCC 6633; assay: Minimum inhibitory concentration, Bacillus subtilis; type: cell-based; settings: ATCC6633
[4] = system: Staphylococcus aureus ATCC 6538F; assay: Minimum inhibitory concentration, Staphylococcus aureus; type: cell-based; settings: ATCC6538F
[5] = system: Proteus mirabilis; assay: Antibacterial activity, plate disc method (diameter of inhibitory circle), Proteus mirabilis; type: cell-based; parameters: unit not given here; settings: pH 8.0, plate disc method
Excerpt: (§1) 3. The antibacterial activities to Proteus mirabilis and Salmonella gallinarum are as follows:
(§2) Peptone 1%, yeast extract 0.1%, agaragar 1%, pH 8.0, plate disc method,
(§3) the numerical values are the diameters of inhibitory circles.

[6] = system: Proteus vulgaris OXK US; assay: Minimum inhibitory concentration, Proteus vulgaris; type: cell-based
[7] = system: Salmonella gallinarum; assay: Antibacterial activity, plate disc method (diameter of inhibitory circle), Salmonella gallinarum; type: cell-based; settings: pH 8.0, plate disc method
Excerpt: as §1, §2, §3

[8] = system: Salmonella typhi H901W; assay: Minimum inhibitory concentration, Salmonella typhi; type: cell-based; settings: Salmonella enterica, read-out: Minimum inhibitory concentration
[9] = system: Pseudomonas aeruginosa NCTC 10490; assay: Minimum inhibitory concentration, Pseudomonas aeruginosa; type: cell-based; settings: NCTC10490
[10] = system: Salmonella enteritidis 1891; assay: Minimum inhibitory concentration, Salmonella enteritidis; type: cell-based; settings: Salmonella enterica
[11] = system: Shigella boydii IID 627; assay: Minimum inhibitory concentration, Shigella boydii; type: cell-based; settings: IID627
[12] = system: Proteus mirabilis IMFOM9; assay: Minimum inhibitory concentration, Proteus mirabilis; type: cell-based
[13] = system: Klebsiella pnuemoniae ATCC 10031; assay: Minimum inhibitory concentration, Klebsiella pnuemoniae; type: cell-based; settings: ATCC10031

Compound	MIC [1]	Hygroscopicity [2]	Solubility in ethyl acetate, butyl acetate, n-butanol and other organic solvents ([2]; ethyl acetate, butyl acetate, n-butanol and other organic solvents)	Solubility in methanol and ethanol ([2]; methanol and ethanol)	Solubility in water [2]	MIC [3]	MIC [4]	diameter of inhibitory circle ([5]; 100 γ/ml)	diameter of inhibitory circle ([5]; 500 γ/ml)	MIC [6]	diameter of inhibitory circle ([7]; 100 γ/ml)	diameter of inhibitory circle ([7]; 500 γ/ml)	MIC [8]	MIC [9]	MIC [10]	MIC [11]	MIC [12]	MIC [13]	Solubility in methanol, ethanol, ethyl acetate, butyl acetate and other organic solvents ([2]; ethyl acetate, butyl acetate)
CO[C@@]1(NC(=O)CCCC(=O)O)C(=O)N2C(C(=O)O)=C(COC(=O)/C=C/c3ccc(O)cc3)CS[C@@H]21 [Compound (D), 7β-(4-carboxybutyramido)-3-(p-hydroxycinnamoyloxymethyl)-7α-methoxy-Δ^3-cephem-4-carboxylic acid]	6.25 mg/L (≈ 12 µM)	Very hygroscopic	scarcely soluble	slightly soluble	Easily soluble	100 mg/L (≈ 192 µM)	50 mg/L (≈ 96.1 µM)	18.0	27.7	3.13 mg/L (≈ 6.01 µM)	11.5	16.2	25 mg/L (≈ 48 µM)	> 100 mg/L	25 mg/L (≈ 48 µM)	12.5 mg/L (≈ 24 µM)	6.25 mg/L (≈ 12 µM)	12.5 mg/L (≈ 24 µM)	
CO[C@@]1(NC(=O)CCCC(N)C(=O)O)C(=O)N2C(C(=O)O)=C(CSc3nnnn3C)CS[C@@H]21 (some centres unmarked) [Y-G19Z-G, 7(5-amino-5-carboxyvaleramido)-7-methoxy-3-(1-methyl-1H-tetrazol-5-yl)thimethyl-Δ^3cephem-4-carboxylic acid, reference compound]								21.6	27.0		18.5	21.5							
COC(=Cc1ccc(O)cc1)C(=O)OCC1=C(C(=O)O)N2C(=O)[C@](NC(=O)CCC[C@@H](N)C(=O)O)(OC)[C@H]2SC1 [Comp. b, reference compound]	12.5 mg/L (≈ 21.6 µM)					6.25 mg/L (≈ 10.8 µM)	100 mg/L (≈ 173 µM)			6.25 mg/L (≈ 10.8 µM)			50 mg/L (≈ 86.3 µM)	> 100 mg/L	12.5 mg/L (≈ 21.6 µM)	50 mg/L (≈ 86.3 µM)	6.25 mg/L (≈ 10.8 µM)	25 mg/L (≈ 43.1 µM)	
CO[C@@]1(NC(=O)CCCC(=O)O)C(=O)N2C(C(=O)O)=C(CSc3nnnn3C)CS[C@@H]21 [Y-G19Z-GG, 7(4-carboxybutyramido)-7-methoxy-3-(1-methyl-1H-tetrazol-5-yl)thio-methylΔ^3cephem-4-carboxylic acid, reference compound]									19.0			16.0							
CO[C@@]1(NC(=O)CCCC(=O)O)C(=O)N2C(C(=O)O)=C(COC(=O)/C=C/c3ccc(OS(=O)(=O)O)cc3)CS[C@@H]21 [Compound (B), 7β-(4-Carboxybutyramido)-7α-methoxy-3-(p-sulfooxycinnamoyloxymethyl)-Δ^3-cephem-4-carboxylic acid]	6.25 mg/L (≈ 10.4 µM)				Easily soluble	100 mg/L (≈ 167 µM)	100 mg/L (≈ 167 µM)	17.6	27.2	6.25 mg/L (≈ 10.4 µM)	14.2	18.3	50 mg/L (≈ 83.3 µM)	> 100 mg/L	50 mg/L (≈ 83.3 µM)	25 mg/L (≈ 41.6 µM)	12.5 mg/L (≈ 20.8 µM)	25 mg/L (≈ 41.6 µM)	scarcely soluble
CO[C@@]1(NC(=O)CCC[C@@H](N)C(=O)O)C(=O)N2C(C(=O)O)=C(COC(=O)/C=C/c3ccc(O)cc3)CS[C@@H]21 [Compound (C), 7β-(D-5-amino-5-carboxyvaleramido)-3-(p-hydroxycinnamoyloxymethyl)-7α-methoxy-Δ^3-cephem-4-carboxylic acid]	3.13 mg/L (≈ 5.7 µM)				Easily soluble	3.13 mg/L (≈ 5.7 µM)	50 mg/L (≈ 91 µM)	22.0	27.8	0.78 mg/L (≈ 1.42 µM)	15.1	20.0	12.5 mg/L (≈ 22.7 µM)	> 100 mg/L	1.56 mg/L (≈ 2.84 µM)	6.25 mg/L (≈ 11.4 µM)	0.78 mg/L (≈ 1.42 µM)	3.13 mg/L (≈ 5.7 µM)	scarcely soluble
CO[C@@]1(NC(=O)CCC[C@@H](N)C(=O)O)C(=O)N2C(C(=O)O)=C(COC(=O)/C=C/c3ccc(OS(=O)(=O)O)cc3)CS[C@@H]21 [Compound (A), 7β-(D-5-Amino-5-carboxyvaleramido)-7α-methoxy-3-(p-sulfooxycinnamoyloxymethyl)-Δ^3-cephem-4-carboxylic acid]	6.25 mg/L (≈ 9.93 µM)				Easily soluble	12.5 mg/L (≈ 19.9 µM)	100 mg/L (≈ 159 µM)	22.3	28.7	0.39 mg/L (≈ 0.619 µM)	17.0	21.5	3.13 mg/L (≈ 4.97 µM)	> 100 mg/L	6.25 mg/L (≈ 9.93 µM)	6.25 mg/L (≈ 9.93 µM)	0.78 mg/L (≈ 1.24 µM)	25 mg/L (≈ 39.7 µM)	scarcely
COC(=Cc1ccc(OS(=O)(=O)O)cc1)C(=O)OCC1=C(C(=O)O)N2C(=O)[C@](NC(=O)CCC[C@@H](N)C(=O)O)(OC)[C@H]2SC1 [Comp. a, reference compound]	25 mg/L (≈ 37.9 µM)					50 mg/L (≈ 75.8 µM)	> 100 mg/L			1.56 mg/L (≈ 2.36 µM)			25 mg/L (≈ 37.9 µM)	> 100 mg/L	25 mg/L (≈ 37.9 µM)	25 mg/L (≈ 37.9 µM)	6.25 mg/L (≈ 9.47 µM)	50 mg/L (≈ 75.8 µM)	

Reference: patent publication US4410626A, “Process for the production of 7α-methoxycephalosporin derivatives” (Yamanouchi Pharmaceutical Co. Ltd., priority 1978, dated 1983)
